Test results: patent US20110288154A1, “RNA Interference Mediated Inhibition of Epithelial Sodium Channel (ENaC) Gene Expression Using Short Interfering Nucleic Acid (siNA)” (MERCK & CO., INC., priority 2008, published 2011)
[invAb] = inverted abasic unit; m = 2'-O-methyl; r = 2'-OH (RNA); f = 2'-fluoro

Tested on: ENaCα mRNA
Experiment: Screening of ENaCα siNAs in human A549 cells (quantitative RT-PCR)
Assay type: cell-based
Design: Percent Reduction of the ENaCα mRNA relative to a non-targeting control siNA (NTC): concentration or dose not given beside the values
Conditions: for Avg ENaCα Expression / Mean (level of ENaCα expression normalized to the level of GAPDH) / Percent Reduction of the ENaCα mRNA relative to a non-targeting control siNA (NTC) / Avg GAPDH Expression: human A549 cells, n = 3; for Avg ENaCα Expression: 25 nM siNA with Lipofectamine 2000, harvested 24 hours post-transfection; for Mean (level of ENaCα expression normalized to the level of GAPDH) / Percent Reduction of the ENaCα mRNA relative to a non-targeting control siNA (NTC) / Avg GAPDH Expression: 24 hours post-transfection; for Avg GAPDH Expression: housekeeping gene used for normalisation; for IC50 / Human % KD (efficacy of ENaCα mRNA knockdown): human cell line; for IC50: dose response, read-out: Human IC50 (potency of ENaCα mRNA knockdown); for Human % KD (efficacy of ENaCα mRNA knockdown): summary
Procedure, shortened: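 A549 cells were seeded 24 h ahead, then transfected in triplicate with siNA/Lipofectamine 2000 at 25 nM siNA and 2.33 μg/ml lipid final, incubated at 37 °C. ENaCα mRNA quantified by qRT-PCR against an RNA standard curve, relative to non-targeting control siNA. IC50 from sigmoidal variable-slope fit.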

Row | Substance | Avg ENaCα Expression | Mean (level of ENaCα expression normalized to the level of GAPDH) | Percent Reduction of the ENaCα mRNA relative to a non-targeting control siNA (NTC) | Avg GAPDH Expression | IC50 | Human % KD (efficacy of ENaCα mRNA knockdown)
1 | B uGuGcAAccAGAAcAAAuc TTB / GAUuuGuucuGGuuGcAcAUU (chain 1 UGUGCAACCAGAACAAAUCTT; chain 2 GAUUUGUUCUGGUUGCACAUU; siRNA; B caps on sense ends, letter-case modifications not given here, further chemistry not given here) [Site 782] | 39.99 | 0.61 | 60.9% | 66.25 | 0.36 nM | 60-85%
2 | B uGuccAAccuGGGcAGccA TTB / UGGcuGcccAGGuuGGAcAUU (sense UGUCCAACCUGGGCAGCCATT; antisense UGGCUGCCCAGGUUGGACAUU; siRNA; sense: DNA at AGT, 2'-fluoro at CU, [invAb] at 5' end, 3' end, backbone not given here; antisense: sugars from the 5' end rrrffmfffmmmffmmmfmmm, backbone not given here) [Site 1742] | 58.12 | 0.53 | 19.7% | 109.65 |  | 
3 | B uccuGuccAAccuGGGcAG TTB / CUGcccAGGuuGGAcAGGAUU (sense UCCUGUCCAACCUGGGCAGTT; antisense CUGCCCAGGUUGGACAGGAUU; siRNA; sense: DNA at AGT, 2'-fluoro at CU, [invAb] at 5' end, 3' end, backbone not given here; antisense: sugars from the 5' end rrrfffmmmffmmmfmmmmmm, backbone not given here) [Site 1739] | 75.77 | 0.75 | −13.8% | 100.60 |  | 
4 | B uuAuGGAuGAuGGuGGcuu TTB / AAGccAccAucAuccAuAAUU (sense UUAUGGAUGAUGGUGGCUUTT; antisense AAGCCACCAUCAUCCAUAAUU; siRNA; B caps on sense ends, letter-case modifications not given here, further chemistry not given here) [Site 1181] | 36.75 | 0.55 | 64.7% | 70.22 | 0.4 nM | 65-80%
